Data taken from publication PMC7217150, “Synthesis, Modification, and Biological Evaluation of a Library of Novel Water‐Soluble Thiopyridone‐Based Organometallic Complexes and Their Unexpected (Biological) Behavior” (Chemistry (Weinheim an Der Bergstrasse, Germany), 2020).

Assays:
Format in all cases: cell-based, human
SW480 [1] = test: Cell cycle distribution, flow cytometry with propidium iodide; settings: for Cell cycle distribution G1, % / Cell cycle distribution G2/M, % / Cell cycle distribution S, %: 24 h, mean ± SD; for Relative change in cell cycle distribution G1, % / Relative change in cell cycle distribution G2/M, % / Relative change in cell cycle distribution S, %: difference to untreated control
Experimental: (§1) The influence of two ligands, as well as seven complexes on cell cycle distribution was tested in two of the cancer cell lines (SW480, CH1/PA‐1) by means of flow cytometry. The cell cycle distribution (G1, S, G2/M phase in %; Table S37) was investigated upon DNA staining with propidium iodide.
(§2) CH1/PA‐1 and SW480 cells were harvested by trypsinization, 8×10^4 and 1.2×10^5 cells per well were seeded into 12‐well plates, respectively. The cells were allowed to attach and resume proliferation for 24 h after the seeding. […] After continuous exposure for 24 h at 37 °C and under 5 % CO2, the cells were harvested by trypsinization and centrifuged at 300 g for 3 min. The cells were washed with PBS (1 mL) and resuspended in propidium iodine (PI) containing HSF buffer (600 μL; 0.1 % Triton X‐100, 0.1 % sodium citrate, 50 μg mL^−1 PI in PBS). After incubation overnight at 4 °C in the dark, 5×10^3 cells were measured by flow cytometry with a Millipore Guava easyCyte 8HT instrument (Luminex, USA). Data were evaluated by means of FlowJo software (Tree Star) using Watson Pragmatic algorithms.60 The fitting of the curve was chosen to keep the root mean square error between 1.0 and 2.0, alongside with good fitting visual model.

CH1/PA‐1 [2] = test: as above; settings: for Cell cycle distribution G1, % / Cell cycle distribution G2/M, % / Cell cycle distribution S, %: 24 h, mean ± SD; for Relative change in cell cycle distribution G1, % / Relative change in cell cycle distribution G2/M, % / Relative change in cell cycle distribution S, %: difference to untreated control
Experimental: as §1, §2

SW480 [3] = test: MTT cytotoxicity assay, monolayer culture; settings: SW480, MTT assay, exposure time 96 h, means ± SDs
Description: (§3) A549 (non‐small cell lung carcinoma), SW480 and HCT‐116 (both colon carcinoma) were kindly provided by Brigitte Marian, Institute of Cancer Research, Department of Medicine I, Medical University of Vienna, Austria. The cell line CH1/PA‐1 (ovarian teratocarcinoma) was kindly provided by Lloyd R. Kelland (CRC Centre for Cancer Therapeutics, Institute of Cancer Research, Sutton, UK). All cell culture media (including supplements) and reagents were obtained from Sigma–Aldrich, and all plasticware from StarLab, unless indicated otherwise.

CH1/PA‐1 [4] = test: MTT cytotoxicity assay, monolayer culture; settings: CH1/PA‐1, MTT assay, exposure time 96 h, means ± SDs
Description: as §3

A549 = test: MTT cytotoxicity assay, monolayer culture; settings: exposure time 96 h, means ± SDs
Description: as §3

SMILES: CC1=C2[O][Rh+]([Cl])[S]=C2C=CN1c1cccc2ccccc12.Cc1c(C)c(C)[c-](C)c1C [Compound 5 d, Chlorido[1‐(naphthalene‐1‐yl)‐2‐methyl‐3‐oxo‐κO‐pyridine‐4(1H)‐thionato‐κS](η^5‐1,2,3,4,5‐pentamethylcyclopentadienyl)rhodium(III)]
- Cell cycle distribution G1, % (SW480 [1]; SW480, 2.5 µM): 38 ± 12%
- Cell cycle distribution G2/M, % (SW480 [1]; SW480, 2.5 µM): 22 ± 8%
- Cell cycle distribution S, % (SW480 [1]; SW480, 2.5 µM): 40 ± 3%
- Relative change in cell cycle distribution G1, % (SW480 [1]; SW480, 2.5 µM): -10%
- Relative change in cell cycle distribution G2/M, % (SW480 [1]; SW480, 2.5 µM): 3%
- Relative change in cell cycle distribution S, % (SW480 [1]; SW480, 2.5 µM): 7%
- Cell cycle distribution G1, % (SW480 [1]; SW480, 5 µM): 43 ± 10%
- Cell cycle distribution G2/M, % (SW480 [1]; SW480, 5 µM): 20 ± 3%
- Cell cycle distribution S, % (SW480 [1]; SW480, 5 µM): 37 ± 8%
- Relative change in cell cycle distribution G1, % (SW480 [1]; SW480, 5 µM): -5%
- Relative change in cell cycle distribution G2/M, % (SW480 [1]; SW480, 5 µM): 1%
- Relative change in cell cycle distribution S, % (SW480 [1]; SW480, 5 µM): 4%
- Cell cycle distribution G1, % (SW480 [1]; SW480, 10 µM): 48 ± 10%
- Cell cycle distribution G2/M, % (SW480 [1]; SW480, 10 µM): 18 ± 1%
- Cell cycle distribution S, % (SW480 [1]; SW480, 10 µM): 34 ± 9%
- Relative change in cell cycle distribution G1, % (SW480 [1]; SW480, 10 µM): 0%
- Relative change in cell cycle distribution G2/M, % (SW480 [1]; SW480, 10 µM): -1%
- Relative change in cell cycle distribution S, % (SW480 [1]; SW480, 10 µM): 1%
- Cell cycle distribution G1, % (CH1/PA‐1 [2]; CH1/PA-1, 1.25 µM): 40 ± 10%
- Cell cycle distribution G2/M, % (CH1/PA‐1 [2]; CH1/PA-1, 1.25 µM): 16 ± 9%
- Cell cycle distribution S, % (CH1/PA‐1 [2]; CH1/PA-1, 1.25 µM): 44 ± 3%
- Relative change in cell cycle distribution G1, % (CH1/PA‐1 [2]; CH1/PA-1, 1.25 µM): 0%
- Relative change in cell cycle distribution G2/M, % (CH1/PA‐1 [2]; CH1/PA-1, 1.25 µM): -8%
- Relative change in cell cycle distribution S, % (CH1/PA‐1 [2]; CH1/PA-1, 1.25 µM): 8%
- Cell cycle distribution G1, % (CH1/PA‐1 [2]; CH1/PA-1, 2.5 µM): 38 ± 5%
- Cell cycle distribution G2/M, % (CH1/PA‐1 [2]; CH1/PA-1, 2.5 µM): 27 ± 8%
- Cell cycle distribution S, % (CH1/PA‐1 [2]; CH1/PA-1, 2.5 µM): 36 ± 7%
- Relative change in cell cycle distribution G1, % (CH1/PA‐1 [2]; CH1/PA-1, 2.5 µM): -2%
- Relative change in cell cycle distribution G2/M, % (CH1/PA‐1 [2]; CH1/PA-1, 2.5 µM): 3%
- Relative change in cell cycle distribution S, % (CH1/PA‐1 [2]; CH1/PA-1, 2.5 µM): 0%
- Cell cycle distribution G1, % (CH1/PA‐1 [2]; CH1/PA-1, 5 µM): 39 ± 6%
- Cell cycle distribution G2/M, % (CH1/PA‐1 [2]; CH1/PA-1, 5 µM): 22 ± 5%
- Cell cycle distribution S, % (CH1/PA‐1 [2]; CH1/PA-1, 5 µM): 40 ± 2%
- Relative change in cell cycle distribution G1, % (CH1/PA‐1 [2]; CH1/PA-1, 5 µM): -1%
- Relative change in cell cycle distribution G2/M, % (CH1/PA‐1 [2]; CH1/PA-1, 5 µM): -2%
- Relative change in cell cycle distribution S, % (CH1/PA‐1 [2]; CH1/PA-1, 5 µM): 4%
- IC50 (SW480 [3]): 1 ± 0.1 µM
- IC50 (CH1/PA‐1 [4]): 0.48 ± 0.06 µM
- IC50 (A549): 1.3 ± 0.2 µM
